Measurements published in patent US6204293A, “Inhibitors of protein isoprenyl transferases” (University of Pittsburgh, priority 1998, dated 2001).
Counter-ions that a name gives are not always drawn.

Target: T1, Rat brain protein farnesyltransferase (Rattus norvegicus, UniProt Q02293+Q04631)
T1 construct: Rat brain protein farnesyltransferase activity is measured; from tissue; host or cells: rat brain
Assay: % inhibition of farnesylation, scintillation proximity assay with biotin-K Ras B fragment
Type: biochemical
Settings: Table 2; 1 × 10^-6 M
In short: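 Rat brain enzyme, purified through three steps, in a scintillation proximity assay kit with biotin-K Ras B fragment substrate at 0.1 mM final. Value is % inhibition of farnesylation.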

T1 sequence (Q02293 whole entry, one chain of several): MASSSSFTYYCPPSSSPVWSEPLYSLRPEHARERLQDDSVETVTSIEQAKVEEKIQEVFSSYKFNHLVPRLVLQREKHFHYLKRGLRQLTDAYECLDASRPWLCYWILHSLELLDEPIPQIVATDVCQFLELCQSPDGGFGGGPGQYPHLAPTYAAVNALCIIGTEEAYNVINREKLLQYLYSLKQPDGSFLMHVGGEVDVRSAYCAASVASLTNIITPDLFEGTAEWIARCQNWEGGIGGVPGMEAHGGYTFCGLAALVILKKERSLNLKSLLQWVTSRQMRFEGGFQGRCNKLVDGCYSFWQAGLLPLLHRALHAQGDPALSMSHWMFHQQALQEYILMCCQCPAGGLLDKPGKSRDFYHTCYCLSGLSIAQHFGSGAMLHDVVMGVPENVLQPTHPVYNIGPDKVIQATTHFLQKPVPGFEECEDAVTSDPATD

Row | % inhibition at 1 × 10^-6 M | Compound
1 | 40% | CSCC[C@H](NC(=O)c1ccc(NC(=O)Cc2ccccc2)cc1-c1ccccc1C)C(=O)O [Example 540]
2 | 37% | CSCC[C@H](NC(=O)c1ccc(NC(=O)Cc2ccc(C)cc2)cc1-c1ccccc1C)C(=O)O [Example 541]
3 | 67% | COc1ccc(CC(=O)Nc2ccc(C(=O)N[C@@H](CCSC)C(=O)O)c(-c3ccccc3C)c2)cc1 [Example 542]
4 | 35% | COc1ccccc1CCC(=O)Nc1ccc(C(=O)N[C@@H](CCSC)C(=O)O)c(-c2ccccc2C)c1 [Example 544]

Row | Compound | % inhibition at 1 × 10^-6 M
5 | CSCC[C@H](NC(=O)c1ccc(CC(Cc2ccccc2)c2ccccc2)cc1-c1ccccc1C)C(=O)[O-].[Li+] (stereo partly shown) [Example 572] | 91%

Same assay, conditions: read-out: % inhibition at 1 × 10^-6 M

Row | Compound | inhibition at 1 µM
6 | CSCC[C@H](NC(=O)c1ccc(CSC2CCCCC2)cc1-c1ccccc1C)C(=O)O [Example 550, N-[4-cyclohexylthiomethyl-2-(2-methylphenyl)benzoyl]methionine, lithium salt] | 96%
7 | CSCC[C@H](NC(=O)c1ccc(OCCC2CCCCC2)cc1-c1ccccc1C)C(=O)O [Example 552, N-[4-(2-cyclohexylethoxy)-2-(2-methylphenyl)benzoyl]methionine, lithium salt] | 88%
8 | CSCC[C@H](NC(=O)c1ccc(CSCc2ccccc2)cc1-c1ccccc1C)C(=O)O [Example 554, N-[4-benzylthiomethyl-2-(2-methylphenyl)benzoyl]methionine, lithium salt] | 96%
9 | CSCC[C@H](NC(=O)c1ccc(CSCc2ccc(C)cc2)cc1-c1ccccc1C)C(=O)O [Example 556, N-[4-(4-methylbenzyl)thiomethyl-2-(2-methylphenyl)benzoyl]methionine, lithium salt] | 99%
10 | CSCC[C@H](NC(=O)c1ccc(CSCc2ccccc2C)cc1-c1ccccc1C)C(=O)O [Example 557, N-[4-(2-methylbenzyl)thiomethyl-2-(2-methylphenyl)benzoyl]methionine, lithium salt] | 93%
11 | CSCC[C@H](NC(=O)c1ccc(OCCOC2CCCCC2)cc1-c1ccccc1C)C(=O)O [Example 565, N-[4-(2-cyclohexyloxy)ethoxy-2-(2-methylphenyl)benzoyl]methionine, lithium salt] | 94%

Same assay, conditions: read-out: % inhibition at 1 × 10^-6 M; Table 2; 1 × 10^-6 M

Row | inhibition at 1 µM | Compound
12 | 88% | CSCC[C@H](NC(=O)c1ccc(CS[C@H](CO)Cc2ccccc2)cc1-c1ccccc1)C(=O)O [Example 545, N-[4-(3-phenylpropan-1-ol-2-ylthiomethyl)-2-phenylbenzoyl]methionine, sodium salt]
13 | 97% | CSCC[C@H](NC(=O)c1ccc(OC/C=C(\C)CCC=C(C)C)cc1-c1ccccc1C)C(=O)O [Example 546, N-[4-geranyloxy-2-(2-methylphenyl)benzoyl]methionine, lithium salt]
14 | 91% | CSCC[C@H](NC(=O)c1ccc(OC/C=C(\C)CC/C=C(\C)CCC=C(C)C)cc1-c1ccccc1C)C(=O)O [Example 547, N-[4-farnesyloxy-2-(2-methylphenyl)benzoyl]methionine, lithium salt]
15 | 92% | CSCC[C@H](NC(=O)c1ccc(OCCC23CC4CC(CC(C4)C2)C3)cc1-c1ccccc1C)C(=O)O [Example 553, N-[4-(2-adamantan-1-ylethoxy)-2-(2-methylphenyl)benzoyl]methionine]
16 | 85% | CSCC[C@H](NC(=O)c1ccc(CS(=O)(=O)Cc2ccccc2)cc1-c1ccccc1C)C(=O)O [Example 555, N-[4-benzylsulfonylmethyl-2-(2-methylphenyl)benzoyl]methionine]
17 | 91% | CSCC[C@H](NC(=O)c1ccc(OC/C=C/c2ccccc2)cc1-c1ccccc1C)C(=O)O [Example 560, N-[4-(3-phenyl)prop-2-en-1-yloxy-2-(2-methylphenyl)benzoyl]methionine]
18 | 91% | CSCC[C@H](NC(=O)c1ccc(OCCOc2ccccc2)cc1-c1ccccc1C)C(=O)O [Example 561, N-[4-(2-phenoxy)ethoxy-2-(2-methylphenyl)benzoyl]methionine]
19 | 98% | CSCC[C@H](NC(=O)c1ccc(OCCCC2CCCCC2)cc1-c1ccccc1C)C(=O)O [Example 564, N-[4-(3-cyclohexylpropoxy)-2-(2-methylphenylbenzoyl]methionine, lithium salt]
20 | 98% | CSCC[C@H](NC(=O)c1ccc(OCCCOc2ccccc2)cc1-c1ccccc1C)C(=O)O [Example 566, N-[4-(3-phenoxy)propoxy-2-(2-methylphenyl)benzoyl]methionine]
21 | 70% | CSCC[C@H](NC(=O)c1ccc(COCc2ccccc2)cc1-c1ccccc1)C(=O)O [Example 575, N-[4-(benzyloxymethyl)-2-phenylbenzoyl]methionine]
22 | 88% | Cc1ccccc1-c1cc(COCc2ccccc2)ccc1C(=O)N[C@@H](CCS(C)(=O)=O)C(=O)O [Example 576, N-2-[4-(benzyloxymethyl)-2-(2-methylphenyl)benzoyl]amino-4-methanesulfonylbutanoic acid lithium salt]

Row | Compound | inhibition at 1 µM
23 | CSCC[C@H](NC(=O)c1ccc(OCCCCOc2ccccc2)cc1-c1ccccc1C)C(=O)O [Example 568, N-[4-(3-phenoxy)butoxy-2-(2-methylphenyl)benzoyl]methionine. lithium salt] | 93%

Same assay, conditions: read-out: % inhibition at 1 × 10^-7 M

Row | Compound | inhibition at 0.1 µM
24 | CSCC[C@H](NC(=O)c1ccc(CSCC2CCCCC2)cc1-c1ccccc1C)C(=O)O [Example 559, N-[4-cyclohexylmethylthiomethyl-2-(2-methylphenyl)benzoyl]methionine, lithium salt] | 96%
25 | CSCC[C@H](NC(=O)c1ccc(CSCCc2ccccc2)cc1-c1ccccc1C)C(=O)O [Example 562, N-[4-(2-phenyl)ethylthiomethyl-2-(2-methylphenyl)benzoyl]methionine, lithium salt] | 95%
26 | CSCC[C@H](NC(=O)c1ccc(COCc2ccccc2)cc1-c1ccccc1C)C(=O)O [Example 571, N-[4-(benzyloxymethyl)-2-(2-methylphenyl)benzoyl]methionine lithium salt] | 88%

Same assay, conditions: read-out: % inhibition at 1 × 10^-7 M; Table 3; 1 × 10^-7 M

Row | inhibition at 0.1 µM | Compound
27 | 93% | CSCC[C@H](NC(=O)c1ccc(CSc2ccc3ccccc3c2)cc1-c1ccccc1C)C(=O)O [Example 551, N-[4-naphth-2-ylthiomethyl-2-(2-methylphenyl)benzoyl]methionine]
28 | 87% | COc1ccc(CSCc2ccc(C(=O)N[C@@H](CCSC)C(=O)O)c(-c3ccccc3C)c2)cc1 [Example 558, N-[4-(4-methoxybenzyl)thiomethyl-2-(2-methylphenyl)benzoyl]methionine, lithium salt]
29 | 72% | CSCC[C@H](NC(=O)c1ccc(COc2ccc3ccccc3c2)cc1-c1ccccc1C)C(=O)O [Example 573, N-[4-(naphth-2-yloxymethyl)-2-(2-methylphenyl)benzoyl]methionine]
30 | 81% | CSCC[C@H](NC(=O)c1ccc(COc2cccc3ccccc23)cc1-c1ccccc1C)C(=O)O [Example 574, N-[4-(naphth-1-yloxymethyl)-2-(2-methylphenyl)benzoyl]methionine]

Same assay, conditions: read-out: % inhibition at 1 × 10^-8 M; Table 4; 1 × 10^-8 M

Row | Compound | inhibition at 0.01 µM
31 | CSCC[C@H](NC(=O)c1ccc(OCCCCC2CCCCC2)cc1-c1ccccc1C)C(=O)O [Example 567, N-[4-(4-cyclohexyl)butoxy-2-(2-methylphenyl)benzoyl]methionine, lithium salt] | 69%
